What was measured:
[1] = system: bovine corneal endothelium cells; assay: TUNEL assay of AAPH induced apoptosis; type: cell-based; settings: ferulic acid 50 μM and 100 μM, AAPH 25 mM (FIG. 4)
Procedure: Terminal deoxynucleotidyl transferase (TdT) end-labeling (TUNEL) method (DeadEnd™ Fluorometric TUNEL System, Promega, Madison, USA) was used for apoptosis analysis according to the manufacturer's instructions (FIG. 4). Briefly, bovine cornea endothelium cells were seeded on LabTek® chamber slides at a density of 1×10^4 cells/well for 24 hours, treated with 50 μM ferulic acid for 3 hours, and then reacted with 25 mM AAPH (2,2′-azobis(2-amidinopropane dihydrochloride) for 6 hours. Slides were immersed in 4% formaldehyde for fixation, cells were permeabilized with Triton® X-100. Then equilibration buffer, nucleotide mix and rTdT enzyme were added in for apoptosis cells labeling. Finally, counterstaining the nucleus with propidium iodide, and observed by fluorescence microscopy. The green fluorescence spots in FIG. 4 represents the apoptotic cells (fluorescein-12-dUTP) with a red background (propidium iodide).

[2] = system: human corneal endothelium cells (HCECs); assay: Annexin V-FITC / propidium iodide flow cytometry apoptosis assay; type: cell-based; settings: 50 μM and 100 μM, 24 hours (FIG. 3)
Procedure: Annexin V staining is a common method for detecting apoptotic cells. The human corneal endothelium cells (HCECs) were assessed for apoptosis using flow cytometry staining with annexin-V conjugated with fluorescein isothiocyanate and propidium iodide (FIG. 3). HCECs were cultured in DMEM/F12 containing 50 μM and 100 μM ferulic acid. Briefly, HCECs were grown to confluence and incubated for 24 hours in 24-well plates using the same conditions as in the previous sets of experiments. After centrifugation and washing in cold PBS, HCECs for annexin V-FITC staining were resuspended in binding buffer (10 mM HEPES, 140 mM sodium chloride, 5 mM potassium chloride, 1 mM magnesium dichloride, 2.5 mM calcium dichloride, pH 7.4) at a concentration of 10^6 cells/ml. Five hundred microliters containing 5×10^5 cells was transferred to a culture tube, and […] of FITC-conjugated annexin V was added. Positive controls were provided for both apoptotic and necrotic (10% ethanol) cell death. For simultaneous scoring of the differential cellular response, aliquots of 10^4 cells each were immediately processed for fluorescence-activated cell sorting (FACS) on a FACS Calibur flow cytometer (Becton-Dickinson). Excitation parameters were set at λEx=488 nm, and fluorescence emission was detected at […]=518 nm for annexin V-FITC.

## COc1cc(/C=C/C(=O)O)ccc1O [ferulic acid]
[1]
  protection against AAPH induced damage (apoptosis, TUNEL): prevented and/or antagonized AAPH (25 mM) induced damage
[2]
  cytotoxicity (apoptosis, annexin-V/PI): no cytotoxic effect
